Experimental data taken from ChEMBL document CHEMBL6071137, “Synthesis and biological studies of 2-aminothiophene derivatives as positive allosteric modulators of glucagon-like peptide 1 receptor” (2024).
Active and inactive are the calls of the source. No cut-off for these calls is given here.

Key:
[1] = molecular target: Glucagon-like peptide 1 receptor (Homo sapiens) (UniProt P43220); assay: Positive allosteric modulation of human GLP-1 receptor in HEK cells expressing luciferase2P assessed as fold increase in GLP-1R activity incubated for 4 hrs in presence of GLP-1 by luciferase based assay relative to GLP-1 alone; format: cell-based; settings: filed as positive allosteric modulator
[2] = molecular target: Glucagon-like peptide 1 receptor (Homo sapiens) (UniProt P43220); assay: Positive allosteric modulation of human GLP-1 receptor in HEK cells expressing luciferase2P assessed as cAMP level incubated for 4 hrs by luciferase based assay relative to GLP-1; format: functional, cell-based; set-up: concentration or dose not given beside the values; settings: filed as positive allosteric modulator
[3] = tested on: INS1(832/13); assay: Induction of glucose dependent insulin secretion in rat INS-1 832/13 cells expressing GLP-1R at 5 uM starved for 2 hrs in KRB buffer followed by glucose addition and measured after 90 mins by ELISA; format: functional, cell-based
[4] = Induction of glucose dependent insulin secretion in rat INS-1 832/13 cells expressing GLP-1R assessed as fold increase at 5 uM starved for 2 hrs in KRB buffer followed by 16.7 mM of glucose addition and measured after 90 mins in presence of GLP-1 by ELISA; format: functional, INS1(832/13); settings: 1.5 h
[5] = molecular target: Glucagon-like peptide 1 receptor (Homo sapiens) (UniProt P43220); assay: Positive allosteric modulation of human GLP-1 receptor in HEK cells expressing luciferase2P incubated for 4 hrs in presence of 10 nM of GLP-1 by luciferase based assay; format: cell-based; settings: filed as positive allosteric modulator, dose 0.78-100 µM
[6] = molecular target: Glucagon-like peptide 1 receptor (Homo sapiens) (UniProt P43220); assay: Positive allosteric modulation of human GLP-1 receptor in HEK cells expressing luciferase2P at 5 uM incubated for 4 hrs in presence of varying concentrations of GLP-1 by luciferase based assay; format: cell-based; settings: filed as positive allosteric modulator
[7] = tested on: Mus musculus; assay: Anti-diabetic activity against overnight-fasted male CD1 mouse assessed as reduction in blood glucose concentration at 10 mg/kg, ip preadministered with compound for 45 mins followed by 2.5 g/kg dextrose addition and measured after 60 mins in the presence of sitagliptin by iGTT test relative to control; format: functional; set-up: scale not given: the % may be the effect or the level left; settings: time 105 min, 1.75 h
[8] = molecular target: T1, Vasoactive intestinal polypeptide receptor 1 (Homo sapiens) (UniProt P32241); assay: Positive allosteric modulation of VIPR1 (unknown origin) transfected in HEK cells expressing luciferase2P assessed as increase in luciferase activity; format: cell-based; settings: filed as positive allosteric modulator
T1 sequence (whole entry): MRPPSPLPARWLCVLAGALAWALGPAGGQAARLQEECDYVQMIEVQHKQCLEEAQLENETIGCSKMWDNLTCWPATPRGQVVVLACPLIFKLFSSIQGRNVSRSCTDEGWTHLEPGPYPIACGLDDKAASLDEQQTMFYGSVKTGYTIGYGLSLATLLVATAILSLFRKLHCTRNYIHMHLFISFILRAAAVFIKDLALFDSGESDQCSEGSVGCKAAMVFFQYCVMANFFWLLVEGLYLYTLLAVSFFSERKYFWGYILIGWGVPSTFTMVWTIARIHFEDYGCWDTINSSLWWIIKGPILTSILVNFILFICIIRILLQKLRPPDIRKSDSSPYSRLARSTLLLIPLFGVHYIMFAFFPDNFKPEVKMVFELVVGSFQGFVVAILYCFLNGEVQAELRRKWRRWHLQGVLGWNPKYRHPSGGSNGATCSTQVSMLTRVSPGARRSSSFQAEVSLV

[9] = molecular target: Glucagon receptor (Homo sapiens) (UniProt P47871); assay: Positive allosteric modulation of glucagon receptor (unknown origin) transfected in HEK cells expressing luciferase2P assessed as increase in luciferase activity; format: cell-based; settings: filed as positive allosteric modulator
[10] = molecular target: T2, Gastric inhibitory polypeptide receptor (Homo sapiens) (UniProt P48546); assay: Positive allosteric modulation of GIPR (unknown origin) transfected in HEK cells expressing luciferase2P assessed as increase in luciferase activity; format: cell-based; settings: filed as positive allosteric modulator
T2 sequence (whole entry): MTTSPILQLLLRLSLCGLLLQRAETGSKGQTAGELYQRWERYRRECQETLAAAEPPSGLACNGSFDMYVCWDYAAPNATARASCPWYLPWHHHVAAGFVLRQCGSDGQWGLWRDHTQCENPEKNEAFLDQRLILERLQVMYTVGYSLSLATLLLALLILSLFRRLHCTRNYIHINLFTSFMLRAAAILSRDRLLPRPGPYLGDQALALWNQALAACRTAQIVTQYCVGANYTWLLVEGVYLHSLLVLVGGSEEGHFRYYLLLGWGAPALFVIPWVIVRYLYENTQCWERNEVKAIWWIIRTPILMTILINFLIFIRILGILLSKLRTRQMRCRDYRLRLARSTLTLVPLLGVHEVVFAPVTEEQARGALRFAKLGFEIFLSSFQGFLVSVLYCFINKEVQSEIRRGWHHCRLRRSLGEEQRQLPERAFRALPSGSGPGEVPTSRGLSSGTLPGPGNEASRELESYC

[11] = tested on: Mus musculus; assay: Anti-diabetic activity against overnight-fasted male CD1 mouse assessed as reduction in blood glucose concentration at 10 to 30 mg/kg, ip preadministered with compound for 45 mins followed by 2.5 g/kg dextrose addition and measured after 60 mins by iGTT test relative to control; format: functional; set-up: scale not given: the % may be the effect or the level left; settings: dose 10-30 mg/kg, time 105 min, 1.75 h
[12] = tested on: Mus musculus; assay: Anti-diabetic activity against overnight-fasted male CD1 mouse assessed as reduction in blood glucose concentration at 5 to 30 mg/kg, ip preadministered with compound for 45 mins followed by 2.5 g/kg dextrose addition and measured after 60 mins by iGTT test; format: functional, organism-based; settings: dose 5-30 mg/kg, time 105.0 min
[13] = tested on: Mus musculus; assay: Anti-diabetic activity against overnight-fasted male CD1 mouse assessed as reduction in blood glucose concentration at 10 to 30 mg/kg, ip preadministered with compound for 45 mins followed by 2.5 g/kg dextrose addition and measured after 30 mins by iGTT test; format: functional, organism-based; settings: dose 10-30 mg/kg, time 75.0 min
[14] = tested on: Mus musculus; assay: Anti-diabetic activity against overnight-fasted male CD1 mouse assessed as reduction in blood glucose concentration at 10 mg/kg, ip preadministered with compound for 45 mins followed by 2.5 g/kg dextrose addition and measured after 60 mins by iGTT test; format: functional, organism-based; settings: time 105.0 min
[15] = tested on: Mus musculus; assay: Anti-diabetic activity against overnight-fasted male CD1 mouse assessed as reduction in blood glucose concentration at 5 mg/kg, ip preadministered with compound for 45 mins followed by 2.5 g/kg dextrose addition and measured after 60 mins by iGTT test; format: functional, organism-based; settings: time 105.0 min

Chain of Glucagon-like peptide 1 receptor (Homo sapiens) (P43220 whole entry): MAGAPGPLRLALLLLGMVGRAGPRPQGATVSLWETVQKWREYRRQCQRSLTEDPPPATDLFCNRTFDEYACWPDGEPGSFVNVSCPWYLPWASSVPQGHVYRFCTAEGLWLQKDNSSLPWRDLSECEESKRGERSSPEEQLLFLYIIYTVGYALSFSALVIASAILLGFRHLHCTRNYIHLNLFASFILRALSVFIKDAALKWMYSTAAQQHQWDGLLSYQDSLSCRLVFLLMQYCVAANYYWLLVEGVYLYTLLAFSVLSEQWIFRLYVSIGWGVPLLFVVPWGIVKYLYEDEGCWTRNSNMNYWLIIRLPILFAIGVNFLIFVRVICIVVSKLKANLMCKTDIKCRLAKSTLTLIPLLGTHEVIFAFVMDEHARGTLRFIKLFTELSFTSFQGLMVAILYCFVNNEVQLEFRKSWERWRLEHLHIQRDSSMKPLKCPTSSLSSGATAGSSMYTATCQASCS
Chain of Glucagon receptor (Homo sapiens) (P47871 whole entry): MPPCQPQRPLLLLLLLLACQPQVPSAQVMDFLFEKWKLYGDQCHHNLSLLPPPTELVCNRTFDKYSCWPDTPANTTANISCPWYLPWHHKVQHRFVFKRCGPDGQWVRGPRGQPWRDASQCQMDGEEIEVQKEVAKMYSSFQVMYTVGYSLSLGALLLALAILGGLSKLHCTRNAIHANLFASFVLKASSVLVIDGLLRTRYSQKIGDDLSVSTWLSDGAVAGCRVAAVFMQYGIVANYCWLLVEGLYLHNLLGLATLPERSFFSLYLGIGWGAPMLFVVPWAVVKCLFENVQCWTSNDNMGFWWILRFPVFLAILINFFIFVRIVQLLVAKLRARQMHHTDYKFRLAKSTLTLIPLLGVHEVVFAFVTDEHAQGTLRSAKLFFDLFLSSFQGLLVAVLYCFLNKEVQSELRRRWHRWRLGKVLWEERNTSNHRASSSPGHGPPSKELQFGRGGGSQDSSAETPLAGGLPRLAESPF

| SMILES | fold change (FC) [1] | Activity [2] [%] | other results |
| --- | --- | --- | --- |
| CCOC(=O)c1c(N)sc2c1CCN(CC)C2 | > 2 | 94.3 | – |
| CCOC(=O)c1c(N)sc2c1CCSC2 | > 2 | 192 | – |
| CCOC(=O)c1c(N)sc2c1CCN(C1CC1)C2 | > 2 | 88.3 | – |
| CCOC(=O)c1c(N)sc2c1CCN(C(C)C)C2 | > 2 | 82.2 | – |
| CCOC(=O)c1c(N)sc2c1CCN(C)C2 | > 2 | 75.7 | – |
| CCOC(=O)c1c(N)sc2c1CCC(C)C2 (racemic) | > 2 | 159 | – |
| CCCC1CCc2c(sc(N)c2C(=O)OCC)C1 (racemic) | > 2 | 157 | – |
| CCOC(=O)c1c(N)sc2c1CC(C)(C)CC2 | > 2 | 133 | – |
| CCOC(=O)c1c(N)sc2c1CCOC2 | > 2 | 86.5 | – |
| CCOC(=O)c1c(N)sc2c1CCN(C(=O)OC(C)(C)C)C2 | > 2 | 164 | – |
| CCOC(=O)c1c(N)sc2c1CCC(C)(C)C2 | > 2 | 164 | – |
| CCOC(=O)c1c(N)sc2c1CCC(C(C)C)C2 (racemic) | > 2 | 247 | – |
| CCOC(=O)c1c(N)sc2c1CCC(C(F)(F)F)C2 (racemic) | > 2 | 183 | – |
| CCOC(=O)c1c(N)sc2c1CCC(C(C)(C)C)C2 (racemic) | > 2 | 195 | – |
| CCOC(=O)c1c(N)sc2c1C(C)CCC2 (racemic) | > 2 | 82 | – |
| C=CCOC(=O)N1CCc2c(sc(N)c2C(=O)OCC)C1 | > 2 | 232 | – |
| CCOC(=O)c1c(N)sc2c1CCN(S(=O)(=O)C1CC1)C2 | > 2 | 106 | – |

Second part, led by results:

| fold change (FC) [1] | Activity [2] [%] | SMILES | other results |
| --- | --- | --- | --- |
| > 2 | 131 | Nc1sc2c(c1C(=O)c1ccccc1)CCN(S(=O)(=O)C1CC1)C2 | – |
| > 2 | 128 | CC1CCc2c(sc(N)c2C(=O)c2ccc(Cl)cc2)C1 (racemic) | – |
| > 2 | 98.1 | Cc1ccc(C(=O)c2c(N)sc3c2CCN(C(=O)OCc2ccccc2)C3)cc1 | – |
| > 2 | 258 | CCOC(=O)c1c(N)sc2c1CCN(C(=O)OCC)C2 | – |
| > 2 | 124 | CN1CCc2c(sc(N)c2C(=O)c2ccc(Cl)cc2)C1 | – |
| > 2 | 222 | CCOC(=O)N1CCc2c(sc(N)c2C(=O)c2ccc(Cl)cc2)C1 | – |
| > 2 | 147 | CCOC(=O)c1c(N)sc2c1CCN(C(C)=O)C2 | – |
| > 2 | 242 | Cc1ccc(C(=O)c2c(N)sc3c2CCC(C)C3)cc1 (racemic) | Activity [3]: Active; fold change (FC) [4]: >2; Activity [5]: Dose-Dependent Effect; Activity [6]: Active |
| > 2 | 177 | Nc1sc2c(c1C(=O)c1ccc(Cl)cc1)CCOC2 | – |
| > 2 | 196 | CC(=O)N1CCc2c(sc(N)c2C(=O)c2ccc(C)cc2)C1 | – |
| > 2 | 142 | CS(=O)(=O)N1CCc2c(sc(N)c2C(=O)c2ccc(Cl)cc2)C1 | – |
| > 2 | 247 | C=CCOC(=O)N1CCc2c(sc(N)c2C(=O)c2ccccc2)C1 | Activity [3]: Active; fold change (FC) [4]: >2; Activity [5]: Dose-Dependent Effect; Activity [6]: Active |
| > 2 | 92.5 | Cc1ccc(C(=O)c2c(N)sc3c2CCSC3)cc1 | – |
| > 2 | 155 | Nc1sc2c(c1C(=O)c1ccc(Cl)cc1)CCN(C(=O)OCc1ccccc1)C2 | – |
| > 2 | 268 | Cc1ccc(C(=O)c2c(N)sc3c2CCC(C)(C)C3)cc1 | Activity [3]: Active; Activity [7]: ~75%; Activity [8]: Active; Activity [9]: Active; Activity [10]: Active; Activity [11]: 50%; Activity [12]: Active; Activity [13]: Active; Activity [14]: Active; fold change (FC) [4]: >2; Activity [5]: Dose-Dependent Effect; Activity [6]: Active; Activity [15]: Active |
| > 2 | 233 | CCOC(=O)N1CCc2c(sc(N)c2C(=O)c2ccccc2)C1 | Activity [3]: Active; fold change (FC) [4]: >2; Activity [5]: Dose-Dependent Effect; Activity [6]: Active |
| > 2 | 239 | CC(=O)N1CCc2c(sc(N)c2C(=O)c2ccc(Cl)cc2)C1 | – |
| > 2 | 231 | CC(=O)N1CCc2c(sc(N)c2C(=O)c2ccccc2)C1 | – |
| > 2 | 118 | Cc1ccc(C(=O)c2c(N)sc3c2CCOC3)cc1 | – |
| > 2 | 98.1 | CCOC(=O)N1CCc2c(sc(N)c2C(=O)c2ccc(C)cc2)C1 | – |
| > 2 | 184 | CCOC(=O)c1c(N)sc2c1CCN(C(=O)OCc1ccccc1)C2 | – |
| > 2 | 99.3 | CCN1CCc2c(sc(N)c2C(=O)c2ccc(C)cc2)C1 | – |
| > 2 | 112 | Nc1sc2c(c1C(=O)c1ccc(Cl)cc1)CCSC2 | – |
